Test results: patent US10626144B2, “Peptide derivatives and uses thereof” (Nosopharm, priority 2014, dated 2020)
Square brackets hold non-standard residues; d marks the D form. Peptide text beside a SMILES is read from it. ξ: configuration not given here. Phe(2-CF3) = N[C@@H](Cc1ccccc1C(F)(F)F)C(=O)O; Phe(2,4-Me2) = Cc1ccc(C[C@H](N)C(=O)O)c(C)c1; Phe(4-Cl) = N[C@@H](Cc1ccc(Cl)cc1)C(=O)O; Oic(3aξ,7aξ) = O=C(O)[C@@H]1CC2CCCCC2N1; Phe(3-F) = N[C@@H](Cc1cccc(F)c1)C(=O)O; Dab(3S-OH) = NC[C@H](O)[C@H](N)C(=O)O; Hyp = O=C(O)[C@@H]1C[C@@H](O)CN1; ΔZArg = N=C(N)NCC/C=C(\N)C(=O)O; hLys = NCCCCC[C@H](N)C(=O)O; dOrn = NCCC[C@@H](N)C(=O)O; Pip = O=C(O)[C@@H]1CCCCN1; Aze = O=C(O)[C@@H]1CCN1

Experiments:
Experiment in all cases: MIC, broth microdilution (CLSI), reference strain
Details in all cases: CAMHB
[1] = tested on: Pseudomonas aeruginosa ATCC 27853
[2] = tested on: Escherichia coli ATCC 25922
[3] = tested on: Staphylococcus aureus ATCC 13709
[4] = tested on: Acinetobacter baumannii ATCC 19606

Compound	Pa: MIC Pseudomonas aeruginosa ATCC 27853 [1]	Ec: MIC Escherichia coli ATCC 25922 [2]	Sa: MIC Staphylococcus aureus ATCC 13709 [3]	Ab: MIC Acinetobacter baumannii ATCC 19606 [4]
C[C@H](NC(=O)[C@@H](NC(=O)[C@@H](N)CCCCCN)[C@@H](O)CN)C(=O)NCC(=O)N[C@H](CCCN)C(=O)N1CCC[C@H]1C(=O)N[C@@H](Cc1cnc[nH]1)C(=O)N[C@@H](CCCCN)C(=O)N/C(=C\CCNC(=N)N)C(N)=O [24.69] (H-[hLys][Dab(3S-OH)]AG[dOrn]PHK[ΔZArg]-NH2)	− (>32 μg/mL)	+ (≤32 μg/mL)	++ (≤8 μg/mL)	− (>32 μg/mL)
C[C@H](NC(=O)[C@@H](NC(=O)[C@@H](N)CCCCN)[C@@H](O)CN)C(=O)NCC(=O)N[C@H](CCCN)C(=O)N1C[C@H](O)C[C@H]1C(=O)N[C@@H](Cc1cnc[nH]1)C(=O)N[C@@H](CCCCN)C(=O)N/C(=C\CCNC(=N)N)C(=O)O [24.70] (H-K[Dab(3S-OH)]AG[dOrn][Hyp]HK[ΔZArg]-OH)	− (>32 μg/mL)	− (>32 μg/mL)	+ (≤32 μg/mL)	− (>32 μg/mL)
C[C@H](NC(=O)[C@@H](NC(=O)[C@@H](N)CCCCN)[C@@H](O)CN)C(=O)NCC(=O)N[C@H](CCCN)C(=O)N1CC[C@H]1C(=O)N[C@@H](Cc1cccc(F)c1)C(=O)N[C@@H](CCCCN)C(=O)N/C(=C\CCNC(=N)N)C(=O)O [24.71] (H-K[Dab(3S-OH)]AG[dOrn][Aze][Phe(3-F)]K[ΔZArg]-OH)	− (>32 μg/mL)	+ (≤32 μg/mL)	+ (≤32 μg/mL)	− (>32 μg/mL)
C[C@H](NC(=O)[C@@H](NC(=O)[C@@H](N)CCCCN)[C@@H](O)CN)C(=O)NCC(=O)N[C@H](CCCN)C(=O)N1CC[C@H]1C(=O)N[C@@H](Cc1ccc(Cl)cc1)C(=O)N[C@@H](CCCCN)C(=O)N/C(=C\CCNC(=N)N)C(=O)O [24.72] (H-K[Dab(3S-OH)]AG[dOrn][Aze][Phe(4-Cl)]K[ΔZArg]-OH)	− (>32 μg/mL)	+ (≤32 μg/mL)	++ (≤8 μg/mL)	− (>32 μg/mL)
C[C@H](NC(=O)[C@@H](NC(=O)[C@@H](N)CCCCN)[C@@H](O)CN)C(=O)NCC(=O)N[C@H](CCCN)C(=O)N1CC[C@H]1C(=O)N[C@@H](Cc1cnc[nH]1)C(=O)N[C@@H](CCCCN)C(=O)N/C(=C\CCNC(=N)N)C(=O)O [24.73] (H-K[Dab(3S-OH)]AG[dOrn][Aze]HK[ΔZArg]-OH)	− (>32 μg/mL)	+ (≤32 μg/mL)	+ (≤32 μg/mL)	− (>32 μg/mL)
C[C@H](NC(=O)[C@@H](NC(=O)[C@@H](N)CCCCN)[C@@H](O)CN)C(=O)NCC(=O)N[C@H](CCCN)C(=O)N1CCCC[C@H]1C(=O)N[C@@H](Cc1cnc[nH]1)C(=O)N[C@@H](CCCCN)C(=O)N/C(=C\CCNC(=N)N)C(=O)O [24.74] (H-K[Dab(3S-OH)]AG[dOrn][Pip]HK[ΔZArg]-OH)	− (>32 μg/mL)	+ (≤32 μg/mL)	+ (≤32 μg/mL)	− (>32 μg/mL)
C[C@H](NC(=O)[C@@H](NC(=O)[C@@H](N)CCCCN)[C@@H](O)CN)C(=O)NCC(=O)N[C@H](CCCN)C(=O)N1C2CCCCC2C[C@H]1C(=O)N[C@@H](Cc1cnc[nH]1)C(=O)N[C@@H](CCCCN)C(=O)N/C(=C\CCNC(=N)N)C(=O)O (stereo partly drawn) [24.75] (H-K[Dab(3S-OH)]AG[dOrn][Oic(3aξ,7aξ)]HK[ΔZArg]-OH)	− (>32 μg/mL)	+ (≤32 μg/mL)	+ (≤32 μg/mL)	− (>32 μg/mL)
Cc1ccc(C[C@H](NC(=O)[C@@H]2CCCN2C(=O)[C@@H](CCCN)NC(=O)CNC(=O)[C@H](C)NC(=O)[C@@H](NC(=O)[C@@H](N)CCCCN)[C@@H](O)CN)C(=O)N[C@@H](CCCCN)C(=O)N/C(=C\CCNC(=N)N)C(=O)O)c(C)c1 [24.78] (H-K[Dab(3S-OH)]AG[dOrn]P[Phe(2,4-Me2)]K[ΔZArg]-OH)	− (>32 μg/mL)	+ (≤32 μg/mL)	++ (≤8 μg/mL)	− (>32 μg/mL)
C[C@H](NC(=O)[C@@H](NC(=O)[C@@H](N)CCCCN)[C@@H](O)CN)C(=O)NCC(=O)N[C@H](CCCN)C(=O)N1CCC[C@H]1C(=O)N[C@@H](Cc1ccccc1C(F)(F)F)C(=O)N[C@@H](CCCCN)C(=O)N/C(=C\CCNC(=N)N)C(=O)O [24.79] (H-K[Dab(3S-OH)]AG[dOrn]P[Phe(2-CF3)]K[ΔZArg]-OH)	− (>32 μg/mL)	+ (≤32 μg/mL)	++ (≤8 μg/mL)	− (>32 μg/mL)
